Measured values as given in patent US20180147767A1, “METHODS OF EXTRUDING MULTILAYER FIBERS” (THE BOARD OF TRUSTEES OF UNIVERSITY OF ILLINOIS, priority 2015, published 2018).

Assays:
[1] = system: RAW 264.7 mouse macrophage cells and MDA-MB-231 human adenocarcinoma cells; assay: Co-localization and migration of macrophages and tumor cells co-cultured in multilayer alginate fibers (CellTracker confocal imaging, Pearson correlation factor, Coloc2); type: cell-based; settings: for calculated correlation factor (Pearson): Day 4, drug at approximate IC50: 50 μM for ZA and Rac1, 50 nM for GEF; for migration and co-localization of macrophages with tumor cells: co-cultured fibers, four days of incubation, FIG. 6a
Description: Using CellTracker™-labeling and confocal fluorescence microscopy to quantify the co-localization of the tumor cells and macrophages in co-culture over time (FIG. 8). To calculate correlation factor, ImageJ Fiji with the Coloc2 plugin may be utilized. The images are split into separate channels for macrophages (a) and breast cancer (b) cells and despeckled to remove noise.

[2] = read-out: approximate IC50; cited from earlier work
[3] = system: RAW 264.7 mouse macrophage cells and MDA-MB-231 human adenocarcinoma cells; assay: Macrophage to tumor cell volume ratio per fiber (3D stack counting); settings: Day 4, compared to the other samples
Description: CellTracker Green CM FDA dye and CellTracker CM-Dil dye (Life Technologies) were used to label RAW and 231 cells respectively according to manufacturer's instructions. Labeled 231 cells were dispersed in the alginate solution at a concentration of 5×10^6 cells/mL. Labeled RAW cells were dispersed in CaCl2 solution at a concentration of 4.5×10^7 cells/mL. After fiber generation, fibers were cut into approximately 20 mm sections and stored in 24-well cell culture plates containing media and pharmacological drugs. […] A vehicle control of 2% DMSO in cell culture media was also used. The cells were incubated at 37° C., 5% CO2 environment, with media changes every 2 days.

Compound | calculated correlation factor (Pearson) [1] | migration and co-localization of macrophages with tumor cells [1] | IC50 [2] | calculated correlation factor (Pearson) ([1]; listed as inhibitor of Rac1) | inhibition of migration and co-localization (TC-Mϕ correlation compared to TC/Mϕ ratio) ([1]; FIG. 7b, straight and patterned fibers) | TC/Mϕ ratio [3]
COc1cc2ncnc(Nc3ccc(F)c(Cl)c3)c2cc1OCCCN1CCOCC1 [GEF, Gefitinib] | decreases | distinct impairment of migration and co-localization |  |  |  | 
Cc1ccc(NC(=O)c2cccc(OCc3c(C)noc3C)c2)cc1S(N)(=O)=O [RAC, Rac1 Inhibitor II] | decreases | distinct impairment of migration and co-localization | ~50 µM | return to anti-correlation comparable to initial seeding (Day 0) | highest inhibition of migration and co-localization | significantly higher
